Measured values as given in PubChem BioAssay (NCI).
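Five concentrations, 48 hours, 96-well plates. The concentration for full growth arrest is given as TGI.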

How the values were obtained:
Assay in all cases: DTP human tumour cell line panel, 48 h
[1] = tested on: ACHN renal
[2] = tested on: BT-549 breast
[3] = tested on: CCRF-CEM leukemia
[4] = tested on: HT29 colon
[5] = tested on: NCI/ADR-RES ovarian
[6] = tested on: OVCAR-4 ovarian
[7] = tested on: OVCAR-8 ovarian
[8] = tested on: SN12C renal
[9] = tested on: U251 CNS
[10] = tested on: SR leukemia
[11] = tested on: T-47D breast

Cc1cc(O)c(C(C)C)cc1N=Cc1ccccc1O
TGI [1]: 23.9 µM
TGI [2]: 22 µM
TGI [3]: 0.0897 µM
TGI [4]: > 74 µM
TGI [5]: > 67 µM
TGI [6]: 9.66 µM
TGI [7]: > 29.6 µM
TGI [8]: 12.2 µM
TGI [9]: 14.6 µM

O=C1NC2(C=Cc3c(ccc4ccccc34)O2)Oc2ccccc21 (configuration not stated)
TGI [1]: 77.7 µM
TGI [3]: 32.1 µM
TGI [4]: 30.3 µM
TGI [6]: > 100 µM
TGI [7]: > 100 µM
TGI [8]: 63.4 µM
TGI [10]: 34.5 µM
TGI [9]: 62.5 µM

Brc1cccc[n+]1-c1ccc2cc(-[n+]3ccccc3Br)ccc2c1
TGI [1]: 37.2 µM
TGI [2]: > 100 µM
TGI [3]: > 100 µM
TGI [4]: > 100 µM
TGI [5]: > 100 µM
TGI [7]: > 100 µM
TGI [8]: > 100 µM
TGI [11]: 58.4 µM
TGI [9]: 29.8 µM

C[N+](C)(C)CC1CCCC/C1=N\O (configuration not stated)
TGI [1]: > 100 µM
TGI [3]: > 100 µM
TGI [4]: > 100 µM
TGI [6]: > 100 µM
TGI [7]: > 100 µM
TGI [8]: > 100 µM
TGI [9]: > 100 µM

CC(C)c1cccc(C(C)C)c1OS(=O)(=O)NC(=O)OC(C(F)(F)F)C(F)(F)F
TGI [1]: > 100 µM
TGI [2]: > 100 µM
TGI [3]: > 100 µM
TGI [5]: > 100 µM
TGI [6]: > 100 µM
TGI [7]: > 100 µM
TGI [8]: > 100 µM
TGI [10]: > 100 µM
TGI [9]: > 100 µM

CC1(C)CC2C(C1=O)C1(C)CCCC2(C)C1=O (configuration not stated)
TGI [1]: > 100 µM
TGI [3]: > 100 µM
TGI [4]: > 100 µM
TGI [5]: > 100 µM
TGI [6]: > 100 µM
TGI [7]: > 100 µM
TGI [8]: > 100 µM
TGI [10]: > 100 µM
TGI [11]: > 100 µM
TGI [9]: > 100 µM

CC1(C)c2ccccc2C(O)C12CCC(=O)CC2 (configuration not stated)
TGI [1]: > 100 µM
TGI [4]: > 100 µM
TGI [5]: > 100 µM
TGI [6]: > 100 µM
TGI [8]: > 100 µM
TGI [10]: > 100 µM
TGI [11]: > 100 µM
TGI [9]: > 100 µM

COc1ccc(C2C(Cl)C(=O)N2NC(=O)Cc2ccccc2)cc1OC (configuration not stated)
TGI [1]: > 100 µM
TGI [3]: > 100 µM
TGI [4]: > 100 µM
TGI [6]: > 100 µM
TGI [7]: > 100 µM
TGI [8]: > 100 µM
TGI [10]: > 100 µM
TGI [9]: > 100 µM

COC(=O)C1C2CC3C(OC(=O)C31)C2OC(=O)[C@](OC)(c1ccccc1)C(F)(F)F (some centres not stated)
TGI [1]: > 100 µM
TGI [3]: > 100 µM
TGI [4]: > 100 µM
TGI [6]: > 100 µM
TGI [7]: > 100 µM
TGI [8]: > 100 µM
TGI [10]: > 100 µM
TGI [9]: > 100 µM

C[N+](C)(N)c1nc(N)c(C#N)c(C#N)c1C#N
TGI [1]: > 10 µM
TGI [3]: > 10 µM
TGI [4]: > 10 µM
TGI [5]: > 10 µM
TGI [6]: > 10 µM
TGI [7]: > 10 µM
TGI [8]: > 10 µM
TGI [10]: > 10 µM
TGI [11]: > 10 µM
TGI [9]: > 10 µM

O=C1C[C@H](c2ccc(O)c(O)c2)Oc2cc(O)cc(O)c21
TGI [1]: > 100 µM
TGI [3]: > 100 µM
TGI [4]: > 100 µM
TGI [6]: > 100 µM
TGI [7]: > 100 µM
TGI [8]: > 100 µM
TGI [10]: > 100 µM
TGI [9]: > 100 µM

COCCNC1CCC2(SCCS2)c2[nH]c3ccccc3c21 (configuration not stated)
TGI [1]: > 100 µM
TGI [2]: 38 µM
TGI [3]: 88.3 µM
TGI [4]: > 100 µM
TGI [5]: > 100 µM
TGI [6]: > 100 µM
TGI [7]: > 100 µM
TGI [8]: 91.9 µM
TGI [10]: 69.9 µM
TGI [9]: > 100 µM

OC(c1ccccc1)(c1cccnc1)C(O)(c1ccccc1)c1cccnc1 (configuration not stated)
TGI [1]: > 100 µM
TGI [2]: > 100 µM
TGI [3]: > 100 µM
TGI [4]: > 100 µM
TGI [5]: > 100 µM
TGI [7]: > 100 µM
TGI [8]: > 100 µM
TGI [11]: > 100 µM
TGI [9]: > 100 µM

CN(C)CCn1nc(N)c2nc3cc(C(F)(F)F)ccc3nc21
TGI [1]: > 100 µM
TGI [2]: > 100 µM
TGI [3]: > 100 µM
TGI [4]: > 100 µM
TGI [5]: > 100 µM
TGI [6]: > 100 µM
TGI [7]: > 100 µM
TGI [8]: > 100 µM
TGI [10]: > 100 µM
TGI [9]: > 100 µM

CC[C@H](C)C1=C(OC(C)=O)[N@+]2([O-])Oc3ccc(-c4c(OC(C)=O)c(OC(C)=O)c(-c5ccc(OC(C)=O)cc5)c(OC(C)=O)c4OC(C)=O)cc3O[C@]2([C@@H](C)CC)C(=O)N1OC(C)=O
TGI [1]: > 50 µM
TGI [3]: 11.3 µM
TGI [4]: > 50 µM
TGI [5]: > 50 µM
TGI [6]: 39.6 µM
TGI [7]: 37.6 µM
TGI [8]: > 50 µM
TGI [10]: 28 µM
TGI [11]: 32 µM
TGI [9]: > 50 µM

NCCCC[C@H](N)C(=O)Nc1ccc(-c2nc3ccccc3s2)cc1Cl
TGI [1]: 29.3 µM
TGI [2]: > 42.2 µM
TGI [3]: 14.7 µM
TGI [4]: 18.1 µM
TGI [5]: 51.8 µM
TGI [7]: > 43.9 µM
TGI [8]: 27.7 µM
TGI [11]: 19.4 µM
TGI [9]: 13.7 µM
